Results: publication PMC5011342, “A high throughput drug screening assay to identify compounds that promote oligodendrocyte differentiation using acutely dissociated and purified oligodendrocyte precursor cells” (BMC Research Notes, 2016)
Structures can show the parent of a compound that is named as a salt. Where two headings read alike, the source gives them in different places.

Experiments:
[1] = system: acutely dissociated and purified rat OPCs; experiment: Acute OL differentiation assay (MBP expression/cell, immunofluorescent image quantification); format: cell-based; details: sheet "All OLga data"; for activation at 2 µM / activation at 10 µM / activation at 0.4 µM / activation at 0.08 µM: Rattus norvegicus
Summary of the method: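 This acute differentiation assay used purified rat OPCs from postnatal day 6–7 pups, seeded into PDL/laminin-coated 96-well plates in differentiation medium lacking PDGF and FGF. Compounds were applied in quadruplicate after a 1–2 h preincubation at 37 °C, 10 % CO2, with 0.1 % DMSO negative and 40 ng/ml T3 positive controls in eight wells. After fixation on DIV4, anti-MBP immunofluorescence images yielded MBP expression/cell.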

expanded OPCs = experiment: cells; details: for viability at 0.1 µM / viability at 1 µM / viability at 10 µM: Rattus norvegicus, 72 h
Summary of the method: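 Toxicity screen: compounds added at 0.1, 1 and 10 µM to PDGF-AA-expanded OPCs in 96-well plates, 3-day incubation at 37 °C, 10% CO2, then alamarBlue 1:10 for 4 h with fluorescence readout. Results set screening doses of 10/2, 2/0.4 or 0.4/0.08 µM.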

[2] = test compound at 2 uM, NCC library screen, relative to quetiapine
[3] = alamarBlue viability, NCC library compound at 0.1 µM, sheet "All Tox data"
[4] = alamarBlue viability, NCC library compound at 1 µM, sheet "All Tox data"
[5] = alamarBlue viability, NCC library compound at 10 µM, sheet "All Tox data"
[6] = test compound at 2 uM, NCC library screen, relative to quetiapine, read-out: 2 uM (% Quet)
[7] = test compound at 10 uM, NCC library screen, relative to quetiapine, read-out: 10 uM (% Quet)
[8] = alamarBlue viability of expanded OPCs, compound at 0.1 µM, relative to DMSO control
[9] = alamarBlue viability of expanded OPCs, compound at 1 µM, relative to DMSO control
[10] = alamarBlue viability of expanded OPCs, compound at 10 µM, relative to DMSO control
[11] = 0.4 uM test compound, relative to quetiapine, read-out: OL differentiation, 0.4 uM (% Quet)
[12] = 2 uM test compound, relative to quetiapine, read-out: OL differentiation, 2 uM (% Quet)
[13] = 0.08 uM test compound, relative to quetiapine, read-out: OL differentiation, 0.08 uM (% Quet)
[14] = read-out: 0.1 µM (% DMSO), alamarBlue viability of expanded OPCs, compound at 0.1 µM, sheet All Tox data
[15] = read-out: 1 µM (% DMSO), alamarBlue viability of expanded OPCs, compound at 1 µM, sheet All Tox data
[16] = read-out: 10 µM (% DMSO), alamarBlue viability of expanded OPCs, compound at 10 µM, sheet All Tox data
[17] = 10 uM test compound, relative to quetiapine, read-out: OL differentiation, 10 uM (% Quet)
[18] = test compound at 0.4 uM, MBP expression relative to quetiapine, NCC library screen, read-out: 0.4 uM (% Quet)

## CN1CC[C@]2(c3cccc(O)c3)Cc3nc4ccccc4cc3C[C@H]2C1 [SB 205607]
[1]; test compound at 0.4 uM, NCC library screen, relative to quetiapine
  0.4 uM (% Quet): 15.0 % Quet
[1]; [2]
  2 uM (% Quet): 5.9 % Quet
Expanded OPCs; [3]
  0.1 µM (% DMSO): 84.0 % DMSO
Expanded OPCs; [4]
  1 µM (% DMSO): 78.4 % DMSO
Expanded OPCs; [5]
  10 µM (% DMSO): 50.8 % DMSO

## Cl.NC1CCN(c2cccc(Cl)n2)CC1 [SR57227A]
[1]; 2 uM test compound, relative to quetiapine
  OL differentiation, 2 uM (% Quet): 13.8 % Quet
[1]; 10 uM test compound, relative to quetiapine
  OL differentiation, 10 uM (% Quet): 30.8 % Quet
Expanded OPCs; alamarBlue viability of expanded OPCs, compound at 0.1 µM, sheet All Tox data
  0.1 µM (% DMSO): 85.7 % DMSO
Expanded OPCs; alamarBlue viability of expanded OPCs, compound at 1 µM, sheet All Tox data
  1 µM (% DMSO): 88.3 % DMSO
Expanded OPCs; alamarBlue viability of expanded OPCs, compound at 10 µM, sheet All Tox data
  10 µM (% DMSO): 77.5 % DMSO

## CN(C)[C@@H]1C(O)=C(C(N)=O)C(=O)[C@@]2(O)C(O)=C3C(=O)c4c(O)cccc4C[C@H]3C[C@@H]12 [Sancycline]
[1]; [6]
  activation at 2 µM: 1.8%
[1]; [7]
  activation at 10 µM: 27.4%
Expanded OPCs; [8]
  0.1 µM (% DMSO): 88.7 % DMSO
Expanded OPCs; [9]
  1 µM (% DMSO): 89.0 % DMSO
Expanded OPCs; [10]
  10 µM (% DMSO): 83.0 % DMSO

## CC(C)(C)NC(=O)[C@@H]1C[C@@H]2CCCC[C@@H]2CN1C[C@@H](O)[C@H](Cc1ccccc1)NC(=O)[C@H](CC(N)=O)NC(=O)c1ccc2ccccc2n1 [Saquinavir]
[1]; [11]
  activation at 0.4 µM: -24.5%
[1]; [12]
  activation at 2 µM: -82.7%
Expanded OPCs; read-out: 0.1 µM (% DMSO), alamarBlue viability, NCC library compound at 0.1 µM, sheet "All Tox data"
  viability at 0.1 µM: 95%
Expanded OPCs; read-out: 1 µM (% DMSO), alamarBlue viability, NCC library compound at 1 µM, sheet "All Tox data"
  viability at 1 µM: 88.9%
Expanded OPCs; read-out: 10 µM (% DMSO), alamarBlue viability, NCC library compound at 10 µM, sheet "All Tox data"
  viability at 10 µM: 14.5%

## CN1[C@@H]2C[C@@H](OC(=O)[C@H](CO)c3ccccc3)C[C@H]1[C@@H]1O[C@@H]12 [Scopolamine hydrobromide]
[1]; [13]
  activation at 0.08 µM: 21.6%
[1]; [11]
  activation at 0.4 µM: 10.9%
Expanded OPCs; [14]
  viability at 0.1 µM: 81.1%
Expanded OPCs; [15]
  viability at 1 µM: 90.5%
Expanded OPCs; [16]
  viability at 10 µM: 88.5%

## Cc1ncc([N+](=O)[O-])n1CC(C)O (stereo not shown) [Secnidazole]
[1]; [12]
  activation at 2 µM: 8.1%
[1]; [17]
  activation at 10 µM: 2.5%
Expanded OPCs; [14]
  viability at 0.1 µM: 97.5%
Expanded OPCs; [15]
  viability at 1 µM: 99.6%
Expanded OPCs; [16]
  viability at 10 µM: 110%

## COc1cc(C[C@@H](CO)[C@H](CO)Cc2ccc(O)c(OC)c2)ccc1O [Secoisolariciresinol]
[1]; [2]
  2 uM (% Quet): -3.9 % Quet
[1]; test compound at 10 uM, NCC library screen, relative to quetiapine
  10 uM (% Quet): 12.5 % Quet
Expanded OPCs; [3]
  0.1 µM (% DMSO): 92.4 % DMSO
Expanded OPCs; [4]
  1 µM (% DMSO): 88.4 % DMSO
Expanded OPCs; [5]
  10 µM (% DMSO): 78.5 % DMSO

## C#CCN(C)[C@H](C)Cc1ccccc1 [Selegiline]
[1]; [12]
  activation at 2 µM: 10.1%
[1]; [17]
  activation at 10 µM: 19.7%
[1]; [6]
  activation at 2 µM: 0.64%
[1]; [7]
  activation at 10 µM: 11.2%
Expanded OPCs; [14]
  viability at 0.1 µM: 85.8%
Expanded OPCs; [15]
  viability at 1 µM: 88.8%
Expanded OPCs; [16]
  viability at 10 µM: 91.2%
Expanded OPCs; [8]
  0.1 µM (% DMSO): 101.6 % DMSO
Expanded OPCs; [9]
  1 µM (% DMSO): 93.8 % DMSO
Expanded OPCs; [10]
  10 µM (% DMSO): 94.0 % DMSO

## CN[C@H]1CC[C@@H](c2ccc(Cl)c(Cl)c2)c2ccccc21 [Sertraline]
[1]; [13]
  activation at 0.08 µM: 0.9%
[1]; [11]
  activation at 0.4 µM: -63.6%
[1]; test compound at 0.08 uM, MBP expression relative to quetiapine, NCC library screen, read-out: 0.08 uM (% Quet)
  activation at 0.08 µM: -13.2%
[1]; [18]
  activation at 0.4 µM: -134%
Expanded OPCs; [14]
  viability at 0.1 µM: 74.6%
Expanded OPCs; [15]
  viability at 1 µM: 24.6%
Expanded OPCs; [16]
  viability at 10 µM: 11.1%
Expanded OPCs; [8]
  0.1 µM (% DMSO): 52.7 % DMSO
Expanded OPCs; [9]
  1 µM (% DMSO): 20.4 % DMSO
Expanded OPCs; [10]
  10 µM (% DMSO): 7.7 % DMSO

## CCC(C)(C)C(=O)O[C@H]1C[C@@H](C)C=C2C=C[C@H](C)[C@H](CC[C@@H]3C[C@@H](O)CC(=O)O3)[C@H]21 [Simvastatin]
[1]; [18]
  activation at 0.4 µM: -105%
[1]; test compound at 2 uM, MBP expression relative to quetiapine, NCC library screen, read-out: 2 uM (% Quet)
  activation at 2 µM: -140%
Expanded OPCs; [8]
  0.1 µM (% DMSO): 157.3 % DMSO
Expanded OPCs; [9]
  1 µM (% DMSO): 86.5 % DMSO
Expanded OPCs; [10]
  10 µM (% DMSO): 25.7 % DMSO

## CC(C)NCC(O)c1ccc(NS(C)(=O)=O)cc1 (stereo not shown) [Sotalol]
[1]; [12]
  activation at 2 µM: -13.4%
[1]; [17]
  activation at 10 µM: -22.5%
Expanded OPCs; [14]
  viability at 0.1 µM: 96.2%
Expanded OPCs; [15]
  viability at 1 µM: 89.5%
Expanded OPCs; [16]
  viability at 10 µM: 107%

## CN[C@@H]1[C@H](O)[C@H](NC)[C@H]2O[C@@]3(O)C(=O)C[C@@H](C)O[C@H]3O[C@@H]2[C@H]1O [Spectinomycin]
[1]; [6]
  activation at 2 µM: 7.7%
[1]; [7]
  activation at 10 µM: 18.9%
Expanded OPCs; [8]
  0.1 µM (% DMSO): 91.8 % DMSO
Expanded OPCs; [9]
  1 µM (% DMSO): 87.7 % DMSO
Expanded OPCs; [10]
  10 µM (% DMSO): 83.6 % DMSO
